Assay results taken from patent publication US10597388B2, “Pyridazinone herbicides” (FMC CORPORATION, priority 2014, dated 2020).

Columns and labels:
Type in all cases: in vivo
[1] = system: waterhemp_RES1 (ALS & Triazine resistant common waterhemp, Amaranthus rudis); assay: Test E greenhouse herbicide test, postemergence
In short: (§1)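 Postemergence spray on potted plants, 1–4 leaves, 2–18 cm; greenhouse 14–21 d; visual rating vs controls, 0 (no effect) to 100 (complete control).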

[2] = system: waterhemp_RES2 (ALS & HPPD resistant common waterhemp, Amaranthus rudis); assay: Test E greenhouse herbicide test, postemergence
In short: as §1

[3] = system: beggarticks (hairy beggarticks, Bidens pilosa); assay: Test E greenhouse herbicide test, pre- and postemergence
In short: (§2)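 Scores (0–100, visual, vs controls) reflect greenhouse growth of 14 to 21 d after treatment. Application was pre-emergence to silt loam or post-emergence at the 1- to 4-leaf stage.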

[4] = system: horseweed (Conyza canadensis); assay: as above; settings: Postemergence
In short: as §2

[5] = system: sandbur (southem sandbur, Cenchrus echinatus); assay: as above
In short: as §2

[6] = system: crabgrass, Brazilian (Brazilian crabgrass, Digitaria horizontalis); assay: as above
In short: as §2

[7] = system: waterhemp (common waterhemp, Amaranthus rudis); assay: as above
In short: as §2

kochia (Kochia scoparia) = assay: as above
In short: as §2

[8] = system: nightshade (eastern black nightshade, Solanum ptycanthum); assay: as above; settings: Preemergence
In short: as §2

[9] = system: foxtail, giant (giant foxtail, Setaria faberii); assay: as above; settings: Preemergence
In short: as §2

[10] = system: panicum, fall (fall panicum, Panicum dichotomiflorum); assay: as above
In short: as §2

[11] = system: goosegrass (Eleusine indica); assay: as above; settings: Preemergence
In short: as §2

[12] = system: surinam grass (Brachiaria decumbens); assay: as above; settings: Preemergence
In short: as §2

[13] = system: field bindweed (Convolvulus arvensis); assay: as above
In short: as §2

[14] = system: crabgrass, large (large crabgrass, Digitaria sanguinalis); assay: as above; settings: Preemergence
In short: as §2

[15] = system: ragweed (common ragweed, Ambrosia elatior); assay: as above
In short: as §2

[16] = 31 g ai/ha, visual, scale 0 no effect to 100 complete control
[17] = 62 g ai/ha, scale 0 to 100 (0 no effect, 100 complete control)
[18] = 125 g ai/ha, scale 0 to 100 (0 no effect, 100 complete control)
[19] = 250 g ai/ha, scale 0 to 100 (0 no effect, 100 complete control)
[20] = 62 g ai/ha, Postemergence, scale 0 to 100 (0 no effect, 100 complete control)
[21] = 62 g ai/ha, Preemergence, scale 0 to 100 (0 no effect, 100 complete control)
[22] = 125 g ai/ha, Postemergence, scale 0 to 100 (0 no effect, 100 complete control)
[23] = 250 g ai/ha, Postemergence, scale 0 to 100 (0 no effect, 100 complete control)
[24] = Postemergence, 31 g ai/ha, visual, scale 0 no effect to 100 complete control
[25] = Preemergence, 31 g ai/ha, scale 0 to 100, 0 no effect, 100 complete control
[26] = Preemergence, 125 g ai/ha, visual, scale 0 no effect to 100 complete control
[27] = Preemergence, 250 g ai/ha, visual, scale 0 no effect to 100 complete control
[28] = 125 g ai/ha, Preemergence, scale 0 to 100 (0 no effect, 100 complete control)
[29] = 31 g ai/ha, scale 0 to 100, 0 no effect, 100 complete control
[30] = 250 g ai/ha, visual, scale 0 no effect to 100 complete control
[31] = 125 g ai/ha, visual, scale 0 no effect to 100 complete control

For `CCc1sc2ccc(C)cc2c1-c1c(O)c(C)nn(C)c1=O` [Compound 47], the “Plant response rating, Waterhemp_RES1” value [1, 16] was 60, the “Plant response rating, Waterhemp_RES1” value [1, 17] was 70 and the “Plant response rating, Waterhemp_RES1” value [1, 18] was 80. The “Plant response rating, Waterhemp_RES1” value [1, 19] was 95, the “Plant response rating, Waterhemp_RES2” value [2, 16] was 15 and the “Plant response rating, Waterhemp_RES2” value [2, 17] was 50. The “Plant response rating, Waterhemp_RES2” value [2, 18] was 60, the “Plant response rating, Waterhemp_RES2” value [2, 19] was 70 and the “Plant response rating, Beggarticks” value [3, 20] was 100. The “Plant response rating, Beggarticks” value [3, 21] was 100, the “Plant response rating, Beggarticks” value [3, 22] was 98 and the “Plant response rating, Beggarticks” value [3, 23] was 98. The “Plant response rating, Beggarticks” value [3, 24] was 85, the “Plant response rating, Beggarticks” value [3, 25] was 100 and the “Plant response rating, Beggarticks” value [3, 26] was 100. The “Plant response rating, Beggarticks” value [3, 27] was 100, the “Plant response rating, Horseweed” value [4, 17] was 40 and the “Plant response rating, Horseweed” value [4, 18] was 60. The “Plant response rating, Horseweed” value [4, 19] was 75, the “Plant response rating, Horseweed” value [4, 16] was 40 and the “Plant response rating, Sandbur” value [5, 20] was 20. The “Plant response rating, Sandbur” value [5, 21] was 0, the “Plant response rating, Sandbur” value [5, 22] was 25 and the “Plant response rating, Sandbur” value [5, 28] was 10. The “Plant response rating, Sandbur” value [5, 23] was 35, the “Plant response rating, Sandbur” value [5, 24] was 20 and the “Plant response rating, Sandbur” value [5, 25] was 0. The “Plant response rating, Sandbur” value [5, 27] was 70, the “Plant response rating, Crabgrass, Brazil” value [6, 20] was 20 and the “Plant response rating, Crabgrass, Brazil” value [6, 21] was 0. For the same compound, the “Plant response rating, Crabgrass, Brazil” value [6, 22] was 25, the “Plant response rating, Crabgrass, Brazil” value [6, 23] was 40 and the “Plant response rating, Crabgrass, Brazil” value [6, 24] was 20. The “Plant response rating, Crabgrass, Brazil” value [6, 25] was 0, the “Plant response rating, Crabgrass, Brazil” value [6, 26] was 0 and the “Plant response rating, Crabgrass, Brazil” value [6, 27] was 60. The “Plant response rating, Waterhemp” value [7, 20] was 80, the “Plant response rating, Waterhemp” value [7, 21] was 90 and the “Plant response rating, Waterhemp” value [7, 22] was 85. For the same compound, the “Plant response rating, Waterhemp” value [7, 28] was 90, the “Plant response rating, Waterhemp” value [7, 23] was 100 and the “Plant response rating, Waterhemp” value [7, 24] was 75. The “Plant response rating, Waterhemp” value [7, 25] was 50, the “Plant response rating, Waterhemp” value [7, 27] was 100 and the “Plant response rating, Kochia” value (kochia (Kochia scoparia); [20]) was 70. The “Plant response rating, Kochia” value (kochia (Kochia scoparia); [21]) was 85, the “Plant response rating, Kochia” value (kochia (Kochia scoparia); [22]) was 80 and the “Plant response rating, Kochia” value (kochia (Kochia scoparia); [23]) was 85. For the same compound, the “Plant response rating, Kochia” value (kochia (Kochia scoparia); [24]) was 60, the “Plant response rating, Kochia” value (kochia (Kochia scoparia); [25]) was 0 and the “Plant response rating, Kochia” value (kochia (Kochia scoparia); [26]) was 75. For the same compound, the “Plant response rating, Kochia” value (kochia (Kochia scoparia); [27]) was 100, the “Plant response rating, Nightshade” value [8, 17] was 98 and the “Plant response rating, Nightshade” value [8, 18] was 100. For the same compound, the “Plant response rating, Nightshade” value [8, 29] was 80, the “Plant response rating, Nightshade” value [8, 30] was 100 and the “Plant response rating, Foxtail, Giant” value [9, 17] was 0. The “Plant response rating, Foxtail, Giant” value [9, 29] was 0, the “Plant response rating, Foxtail, Giant” value [9, 31] was 40 and the “Plant response rating, Foxtail, Giant” value [9, 30] was 80. The “Plant response rating, Panicum, Fall” value [10, 20] was 55, the “Plant response rating, Panicum, Fall” value [10, 21] was 50 and the “Plant response rating, Panicum, Fall” value [10, 22] was 55. For the same compound, the “Plant response rating, Panicum, Fall” value [10, 28] was 80, the “Plant response rating, Panicum, Fall” value [10, 23] was 70 and the “Plant response rating, Panicum, Fall” value [10, 24] was 40. The “Plant response rating, Panicum, Fall” value [10, 25] was 50, the “Plant response rating, Panicum, Fall” value [10, 27] was 95 and the “Plant response rating, Goosegrass” value [11, 17] was 0. For the same compound, the “Plant response rating, Goosegrass” value [11, 29] was 0, the “Plant response rating, Goosegrass” value [11, 31] was 0 and the “Plant response rating, Goosegrass” value [11, 30] was 0. For the same compound, the “Plant response rating, Surinam Grass” value [12, 17] was 0, the “Plant response rating, Surinam Grass” value [12, 18] was 35 and the “Plant response rating, Surinam Grass” value [12, 29] was 0. The “Plant response rating, Surinam Grass” value [12, 30] was 35, the “Plant response rating, Field Bindweed” value [13, 20] was 75 and the “Plant response rating, Field Bindweed” value [13, 21] was 50. For the same compound, the “Plant response rating, Field Bindweed” value [13, 22] was 85, the “Plant response rating, Field Bindweed” value [13, 23] was 90 and the “Plant response rating, Field Bindweed” value [13, 24] was 70. For the same compound, the “Plant response rating, Field Bindweed” value [13, 25] was 50, the “Plant response rating, Field Bindweed” value [13, 26] was 90 and the “Plant response rating, Field Bindweed” value [13, 27] was 100. For the same compound, the “Plant response rating, Crabgrass, Large” value [14, 17] was 0, the “Plant response rating, Crabgrass, Large” value [14, 29] was 0 and the “Plant response rating, Crabgrass, Large” value [14, 31] was 0. For the same compound, the “Plant response rating, Crabgrass, Large” value [14, 30] was 35, the “Plant response rating, Ragweed” value [15, 20] was 90 and the “Plant response rating, Ragweed” value [15, 21] was 95. For the same compound, the “Plant response rating, Ragweed” value [15, 22] was 95, the “Plant response rating, Ragweed” value [15, 28] was 98 and the “Plant response rating, Ragweed” value [15, 23] was 95. For the same compound, the “Plant response rating, Ragweed” value [15, 24] was 80, the “Plant response rating, Ragweed” value [15, 25] was 80 and the “Plant response rating, Ragweed” value [15, 27] was 100.
